Data: patent publication US7678812B2, “Aminotetralin-derived urea modulators of vanilloid VR1 receptor” (Janssen Pharmaceutica NV, priority 2002, dated 2010)

Biological target: hVR1 receptors (Homo sapiens, UniProt Q8NER1)
Test: [3H] RTX binding assay, human VR1
Set-up: expressed in transfected cells; host or cells: HEK293 (membrane preparation)
Settings: inhibition of [3H] RTX binding, membranes of HEK293 cells transfected with human VR1
Procedure: Compounds of the present invention were tested for their ability to inhibit the binding of [^3H] RTX to hVR1 receptors in a [^3H] RTX binding assay as previously described (Zhang, Sui-Po. Improved ligand binding assays for vanilloid receptors. PCT Int. Appl. (2002), 29 pp. CODEN: PIXXD2 WO 0233411 A1 20020425 AN 2002:315209; Grant, Elfrida R.; Dubin, Adrienne E.; Zhang, Sui-Po; Zivin, Robert A.; Zhong, Zhong Simultaneous intracellular calcium and sodium flux imaging in human vanilloid receptor 1 (VR1)-transfected human embryonic kidney cells: a method to resolve ionic dependence of VR1-mediated cell death. Journal of Pharmacology and Experimental Therapeutics (2002), 300(1), 9-17.)
HEK293 cells were transfected with human VR1 vanilloid receptors and washed with Hank's Balanced Salt Solution, dissociated with cell dissociation buffer (Sigma), and then centrifuged at 1000×g for 5 min. Cell pellets were homogenized in cold 20 mM HEPES buffer, pH 7.4, containing 5.8 mM NaCl, 320 mM sucrose, 2 mM MgCl2, 0.75 CaCl2 and 5 mM KCl and centrifuged at 1000×g for 15 min. The resultant supernate was then centrifuged at 40000×g for 15 min. The pelleted membranes were kept in an −80° C. freezer.
Approximately 120 μg protein/ml from membranes were incubated with indicated concentrations of [^3H] RTX in 0.5 ml of the HEPES buffer (pH 7.4) containing 0.25 mg/mL fatty acid-free bovine serum albumin at 37° C. for 60 min. The reaction mixture was then cooled to 4° C., 0.1 mg α1-acid glycoprotein added to each sample and incubated at 4° C. for 15 min. The samples were centrifuged at 18500×g for 15 min. The tip of the microcentrifuge tube containing the pellet was cut off. Bound radioactivity was quantified by scintillation counting. Non-specific binding was tested in the presence of 200 nM unlabeled RTX.

Sequence of hVR1 receptors (Q8NER1 whole entry): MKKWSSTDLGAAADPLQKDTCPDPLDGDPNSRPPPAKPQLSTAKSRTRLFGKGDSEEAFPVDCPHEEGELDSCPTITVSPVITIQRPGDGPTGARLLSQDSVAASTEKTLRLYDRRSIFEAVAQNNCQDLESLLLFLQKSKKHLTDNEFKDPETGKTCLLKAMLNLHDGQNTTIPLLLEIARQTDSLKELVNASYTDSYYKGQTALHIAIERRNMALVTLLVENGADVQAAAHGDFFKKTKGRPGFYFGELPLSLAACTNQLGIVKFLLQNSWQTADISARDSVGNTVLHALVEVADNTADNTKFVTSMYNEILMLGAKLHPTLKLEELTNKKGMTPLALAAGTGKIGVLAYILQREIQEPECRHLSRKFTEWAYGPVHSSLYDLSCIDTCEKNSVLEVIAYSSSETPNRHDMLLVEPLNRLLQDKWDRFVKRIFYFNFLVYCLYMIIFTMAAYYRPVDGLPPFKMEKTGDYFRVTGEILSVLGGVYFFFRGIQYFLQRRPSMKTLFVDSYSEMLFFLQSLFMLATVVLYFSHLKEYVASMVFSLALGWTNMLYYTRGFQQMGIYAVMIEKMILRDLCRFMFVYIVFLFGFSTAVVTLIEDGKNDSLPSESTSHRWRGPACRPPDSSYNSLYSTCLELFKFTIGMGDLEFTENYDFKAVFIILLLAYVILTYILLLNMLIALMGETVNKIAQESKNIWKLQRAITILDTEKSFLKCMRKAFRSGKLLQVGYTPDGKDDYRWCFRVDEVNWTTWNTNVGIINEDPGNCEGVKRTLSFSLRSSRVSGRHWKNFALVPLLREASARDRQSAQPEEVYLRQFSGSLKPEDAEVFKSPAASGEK

Row | SMILES | Ki
1 | O=C(Nc1cccc2cnccc12)N[C@H]1CCc2cc(Br)ccc2[C@H]1Cc1ccccc1 (relative stereo) [Compound 39] | 0.89 nM
2 | COc1ccc2c(c1)CC[C@@H](NC(=O)Nc1cccc3cnccc13)[C@H]2Cc1cccc(Cl)c1 (relative stereo) [Compound 44] | 1.96 nM
3 | COc1ccc2c(c1)CC[C@@H](NC(=O)Nc1cccc3cnccc13)[C@@H]2Cc1cccc(Cl)c1 (relative stereo) [Compound 46] | 8.81 nM
4 | COc1ccc2c(c1)CC[C@@H](NC(=O)Nc1cccc3cnccc13)[C@H]2Cc1ccccc1Cl (relative stereo) [Compound 49] | 2.66 nM
5 | COc1ccc2c(c1)CC[C@@H](NC(=O)Nc1cccc3cnccc13)[C@@H]2Cc1ccccc1Cl (relative stereo) [Compound 52] | 12.3 nM
6 | O=C(Nc1cccc2cncc(Cl)c12)N[C@H]1CCc2cc(F)ccc2[C@H]1Cc1ccccc1 (relative stereo) [Compound 98] | 2730 nM
7 | Cc1cc2c(NC(=O)NC3CCc4cc(F)ccc4C3Cc3ccccc3)cccc2cn1 (single isomer, unassigned) [Compound 81a] | 1.12 nM
8 | Cc1cc2c(NC(=O)NC3CCc4cc(F)ccc4C3Cc3ccccc3)cccc2cn1 (single isomer, unassigned) [Compound 81b] | 5.25 nM
9 | O=C(Nc1cccc2c[n+]([O-])ccc12)NC1CCc2cc(F)ccc2C1Cc1ccccc1 (single isomer, unassigned) [Compound 97] | 45.4 nM
10 | O=C(Nc1cccc2c(Cl)nccc12)NC1CCc2cc(F)ccc2C1Cc1ccccc1 (single isomer, unassigned) [Compound 104] | 32.3 nM
11 | COc1ccc2c(c1)CCC(NC(=S)NCc1ccc(O)c(OC)c1)C2Cc1ccccc1 (centres unmarked) [Compound 3, 1-(1-Benzyl-6-methoxy-1,2,3,4-tetrahydro-naphthalen-2-yl)-3-(4-hydroxy-3-methoxy-benzyl)-thiourea] | 98.9 nM
12 | COc1ccc2c(c1)CCC(NC(=S)NCc1ccc(O)c(OC)c1)C2Cc1cccnc1 (centres unmarked) [Compound 6] | > 10000 nM
13 | COc1ccc2c(c1)CCC(NC(=S)NCc1ccc(O)c(OC)c1)C2Cc1c[nH]cn1 (centres unmarked) [Compound 8] | > 10000 nM
14 | COc1ccc2c(c1)CCC(NC(=O)NCc1ccc3c(c1)OCO3)C2Cc1ccccc1 (centres unmarked) [Compound 9] | > 10000 nM
15 | COc1ccc2c(c1)CCC(NC(=O)NCc1ccc(OC)c(OC)c1)C2Cc1ccccc1 (centres unmarked) [Compound 10] | 13000 nM
16 | COc1ccc2c(c1)CCC(NC(=O)NCCc1ccc(OC)c(OC)c1)C2Cc1ccccc1 (centres unmarked) [Compound 13] | 3600 nM
17 | COc1ccc2c(c1)CCC(NC(=S)NCc1ccc3c(c1)OCO3)C2Cc1ccccc1 (centres unmarked) [Compound 14] | > 10000 nM
18 | COc1ccc2c(c1)CCC(NC(=S)NCc1ccc(OC)c(OC)c1)C2Cc1ccccc1 (centres unmarked) [Compound 15] | 3110 nM
19 | COc1ccc2c(c1)CCC(NC(=O)NCc1ccc(O)c(OC)c1)C2Cc1ccccc1 (centres unmarked) [Compound 19] | 258 nM
20 | COCOc1ccc(CNC(=S)NC2CCc3ccccc3C2Cc2ccccc2)cc1OC (centres unmarked) [Compound 21] | 520 nM
21 | COc1cc(CNC(=S)NC2CCc3ccccc3C2Cc2ccccc2)ccc1O (centres unmarked) [Compound 23] | 98.2 nM
22 | COc1ccc2c(c1)CCC(NC(=O)NCc1ccc(N(C)C3CCCCC3)cc1)C2Cc1ccccc1 (centres unmarked) [Compound 25] | 70900 nM
23 | COc1ccc2c(c1)CCC(NC(=O)Nc1cccc3ccc(O)cc13)C2Cc1ccccc1 (centres unmarked) [Compound 35] | 9.64 nM
24 | O=C(Nc1cccc2cnccc12)NC1CCc2cc(F)ccc2C1 (centres unmarked) [Compound 37] | 24.9 nM
25 | COc1cc2c(cc1OC)C(Cc1ccccc1)C(NC(=O)Nc1cccc3cnccc13)CC2 (centres unmarked) [Compound 40] | 29.6 nM
26 | O=C(Nc1cccc2cnccc12)NC1CCc2ccc(Cl)cc2C1Cc1ccccc1 (centres unmarked) [Compound 41] | 4.58 nM
27 | O=C(Nc1cccc2cnccc12)NC1CCc2ccccc2C1Cc1ccccc1 (centres unmarked) [Compound 43] | 3.66 nM
28 | COc1ccc2c(c1)CCC(NC(=O)Nc1cccc3cnccc13)C2Cc1cccnc1 (centres unmarked) [Compound 45] | 1540 nM
29 | COc1ccc2c(c1)CCC(NC(=O)Nc1cccc3cnccc13)C2Cc1cccnc1 (centres unmarked) [Compound 47] | 1030 nM
